In patent US20260250290A1 (BRISTOL-MYERS SQUIBB COMPANY, priority 2023, published 2026) one finds IC50 data, which are given here for 22 compounds.

For the test, the target named is T1, full length SGK1 (Homo sapiens, UniProt O00141).
T1 construct: 125 μM full length SGK1 (Life Technologies Part #PR7358A); purchased Life Technologies PR7358A
T1 sequence (O00141 1-431): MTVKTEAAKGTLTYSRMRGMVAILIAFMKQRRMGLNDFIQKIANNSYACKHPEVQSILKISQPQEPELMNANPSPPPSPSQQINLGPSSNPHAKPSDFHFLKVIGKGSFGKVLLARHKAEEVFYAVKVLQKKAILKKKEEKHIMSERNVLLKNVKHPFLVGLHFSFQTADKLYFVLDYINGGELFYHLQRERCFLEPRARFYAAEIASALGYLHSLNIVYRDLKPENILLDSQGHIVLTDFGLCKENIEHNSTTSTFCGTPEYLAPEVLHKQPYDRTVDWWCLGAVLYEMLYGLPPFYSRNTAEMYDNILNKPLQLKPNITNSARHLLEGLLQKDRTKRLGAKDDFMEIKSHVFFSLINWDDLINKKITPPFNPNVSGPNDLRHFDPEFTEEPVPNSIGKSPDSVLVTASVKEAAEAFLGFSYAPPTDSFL
Kind of test: SGK1 inhibition Assay A (Caliper LabChip electrophoretic separation of fluorescent peptide substrate and phosphorylated product). It counts as biochemical. To be noted: Assay A; 20 μM ATP, 40 min incubation; read-out: SGK1 IC50.

For the compound `N#Cc1ccc(-c2ccc(C(=O)N[C@@H]3CCCN(c4cc(-c5ccnc(C(F)F)c5)n5ncnc(N)c45)C3)s2)cc1` [Example 543, (R)-N-(1-(4-amino-7-(2-(difluoromethyl)pyridin-4-yl)pyrrolo[2,1-f][1,2,4]triazin-5-yl)piperidin-3-yl)-5-(4-cyanophenyl)thiophene-2-carboxamide], the IC50 – broadly, the concentration needed to halve the response being measured – worked out at 7 nM.
The result for `N#Cc1cccc(-c2ccc(C(=O)N[C@@H]3CCCN(c4cc(-c5ccnc(C(F)F)c5)n5ncnc(N)c45)C3)s2)c1` [Example 544, (R)-N-(1-(4-amino-7-(2-(difluoromethyl)pyridin-4-yl)pyrrolo[2,1-f][1,2,4]triazin-5-yl)piperidin-3-yl)-5-(3-cyanophenyl)thiophene-2-carboxamide] reads 5 nM; that for `CC(C)(C)OC(=O)N1CC=C(c2ccc(C(=O)N[C@@H]3CCCN(c4cc(-c5ccnc(C(F)F)c5)n5ncnc(N)c45)C3)s2)CC1` [Example 545, tert-butyl (R)-4-(5-((1-(4-amino-7-(2-(difluoromethyl)pyridin-4-yl)pyrrolo[2,1-f][1,2,4]triazin-5-yl)piperidin-3-yl)carbamoyl)thiophen-2-yl)-3,6-dihydropyridine-1(2H)-carboxylate], 22 nM.
For `CC(C)(C)OC(=O)N1CC=C(c2ccc(C(=O)N[C@@H]3CCCN(c4cc(-c5ccnc(C(F)F)c5)n5ncnc(N)c45)C3)s2)C1` [Example 546, tert-butyl (R)-3-(5-((1-(4-amino-7-(2-(difluoromethyl)pyridin-4-yl)pyrrolo[2,1-f][1,2,4]triazin-5-yl)piperidin-3-yl)carbamoyl)thiophen-2-yl)-2,5-dihydro-1H-pyrrole-1-carboxylate] the value was 29 nM; for `CC(=O)N1CC=C(c2cc(N3CCC[C@@H](NC(=O)c4ccc(-c5cncnc5)s4)C3)c3c(N)ncnn23)C1` [Example 548, (R)-N-(1-(7-(1-acetyl-2,5-dihydro-1H-pyrrol-3-yl)-4-aminopyrrolo[2,1-f][1,2,4]triazin-5-yl)piperidin-3-yl)-5-(pyrimidin-5-yl)thiophene-2-carboxamide], 90 nM; for `CC(=O)N1CC=C(c2cc(N3CCC[C@@H](NC(=O)c4ccc(-c5cn[nH]c5)s4)C3)c3c(N)ncnn23)C1` [Example 550, (R)-N-(1-(7-(1-acetyl-2,5-dihydro-1H-pyrrol-3-yl)-4-aminopyrrolo[2,1-f][1,2,4]triazin-5-yl)piperidin-3-yl)-5-(1H-pyrazol-4-yl)thiophene-2-carboxamide], 8 nM.
Regarding `CC(=O)N1CC=C(c2cc(N3CCC[C@@H](NC(=O)c4ccc(-c5cncc(C#N)c5)s4)C3)c3c(N)ncnn23)C1` [Example 551, (R)-N-(1-(7-(1-acetyl-2,5-dihydro-1H-pyrrol-3-yl)-4-aminopyrrolo[2,1-f][1,2,4]triazin-5-yl)piperidin-3-yl)-5-(5-cyanopyridin-3-yl)thiophene-2-carboxamide], the IC50 came to 6 nM.
The result for `CC(=O)N1CC=C(c2cc(N3CCC[C@@H](NC(=O)c4ccc(-c5cnc(C#N)nc5)s4)C3)c3c(N)ncnn23)C1` [Example 552, (R)-N-(1-(7-(1-acetyl-2,5-dihydro-1H-pyrrol-3-yl)-4-aminopyrrolo[2,1-f][1,2,4]triazin-5-yl)piperidin-3-yl)-5-(2-cyanopyrimidin-5-yl)thiophene-2-carboxamide] reads 27 nM; that for `Nc1ncnn2c(-c3ccnc(C(F)F)c3)cc(N3CCC[C@@H](NC(=O)c4ccc(C5=CCNCC5)s4)C3)c12` [Example 553, (R)-N-(1-(4-amino-7-(2-(difluoromethyl)pyridin-4-yl)pyrrolo[2,1-f][1,2,4]triazin-5-yl)piperidin-3-yl)-5-(1,2,3,6-tetrahydropyridin-4-yl)thiophene-2-carboxamide], 16 nM; that for `CC(=O)N1CC=C(c2cc(N3CCC[C@@H](NC(=O)c4sc(-c5ccnc(C(F)F)c5)cc4OCCN(C)C)C3)c3c(N)ncnn23)C1` [Example 555, (R)-N-(1-(7-(1-acetyl-2,5-dihydro-1H-pyrrol-3-yl)-4-aminopyrrolo[2,1-f][1,2,4]triazin-5-yl)piperidin-3-yl)-5-(2-(difluoromethyl)pyridin-4-yl)-3-(2-(dimethylamino)ethoxy)thiophene-2-carboxamide], 7 nM.
Take `CC(=O)N1CC=C(c2cc(N3CCC[C@@H](NC(=O)c4sc(-c5ccnc(F)c5)cc4OCCN(C)C)C3)c3c(N)ncnn23)C1` [Example 556, (R)-N-(1-(7-(1-acetyl-2,5-dihydro-1H-pyrrol-3-yl)-4-aminopyrrolo[2,1-f][1,2,4]triazin-5-yl)piperidin-3-yl)-3-(2-(dimethylamino)ethoxy)-5-(2-fluoropyridin-4-yl)thiophene-2-carboxamide]: the IC50 is 6 nM.
`COC(=O)N1CC=C(c2cc(N3CCC[C@@H](NC(=O)c4sc(Cl)cc4OC4CCNCC4)C3)c3c(N)ncnn23)C1` [Example 561]: the IC50 was determined as 2 nM.
The result for `COC(=O)N1CC=C(c2cc(N3CCC[C@@H](NC(=O)c4sc(Cl)cc4OC4CCN(C)CC4)C3)c3c(N)ncnn23)C1` [Example 562, methyl (R)-3-(4-amino-5-(3-(5-chloro-3-((1-methylpiperidin-4-yl)oxy)thiophene-2-carboxamido)piperidin-1-yl)pyrrolo[2,1-f][1,2,4]triazin-7-yl)-2,5-dihydro-1H-pyrrole-1-carboxylate] reads 2 nM; that for `COC(=O)N1CC=C(c2cc(N3CCC[C@@H](NC(=O)c4sc(Cl)cc4OC4CCN(C(C)C)CC4)C3)c3c(N)ncnn23)C1` [Example 563, methyl (R)-3-(4-amino-5-(3-(5-chloro-3-((1-isopropylpiperidin-4-yl)oxy)thiophene-2-carboxamido)piperidin-1-yl)pyrrolo[2,1-f][1,2,4]triazin-7-yl)-2,5-dihydro-1H-pyrrole-1-carboxylate], 3 nM; that for `COC(=O)N1CC=C(c2cc(N3CCC[C@@H](NC(=O)c4sc(Cl)cc4OC4CCN(CCO)CC4)C3)c3c(N)ncnn23)C1` [Example 564, methyl (R)-3-(4-amino-5-(3-(5-chloro-3-((1-(2-hydroxyethyl)piperidin-4-yl)oxy)thiophene-2-carboxamido)piperidin-1-yl)pyrrolo[2,1-f][1,2,4]triazin-7-yl)-2,5-dihydro-1H-pyrrole-1-carboxylate], 2 nM.
For `COC(=O)N1CC=C(c2cc(N3CCC[C@@H](NC(=O)c4sc(Cl)cc4OC4CCN(C(C)=O)CC4)C3)c3c(N)ncnn23)C1` [Example 565, methyl (R)-3-(5-(3-(3-((1-acetylpiperidin-4-yl)oxy)-5-chlorothiophene-2-carboxamido)piperidin-1-yl)-4-aminopyrrolo[2,1-f][1,2,4]triazin-7-yl)-2,5-dihydro-1H-pyrrole-1-carboxylate] the value was 3 nM.
For `COC(=O)N1CC=C(c2cc(N3CCC[C@@H](NC(=O)c4sc(Cl)cc4OC4CCN(CC(F)F)CC4)C3)c3c(N)ncnn23)C1` [Example 566, methyl (R)-3-(4-amino-5-(3-(5-chloro-3-((1-(2,2-difluoroethyl)piperidin-4-yl)oxy)thiophene-2-carboxamido)piperidin-1-yl)pyrrolo[2,1-f][1,2,4]triazin-7-yl)-2,5-dihydro-1H-pyrrole-1-carboxylate] the value was 12 nM; for `COC(=O)N1CC=C(c2cc(N3CCC[C@@H](NC(=O)c4sc(Cl)cc4OC4COC4)C3)c3c(N)ncnn23)C1` [Example 567, Methyl (R)-3-(4-amino-5-(3-(5-chloro-3-(oxetan-3-yloxy)thiophene-2-carboxamido)piperidin-1-yl)pyrrolo[2,1-f][1,2,4]triazin-7-yl)-2,5-dihydro-1H-pyrrole-1-carboxylate], 4 nM; for `COC(=O)N1CC=C(c2cc(N3CCC[C@@H](NC(=O)c4sc(Cl)cc4OC4CNC4)C3)c3c(N)ncnn23)C1` [Example 568, Methyl (R)-3-(4-amino-5-(3-(3-(azetidin-3-yloxy)-5-chlorothiophene-2-carboxamido)piperidin-1-yl)pyrrolo[2,1-f][1,2,4]triazin-7-yl)-2,5-dihydro-1H-pyrrole-1-carboxylate], 5 nM.
Regarding `COC(=O)N1CC=C(c2cc(N3CCC[C@@H](NC(=O)c4sc(Cl)cc4OC4CCNC4)C3)c3c(N)ncnn23)C1` (stereo partly drawn) [Example 569, Methyl 3-(4-amino-5-((3R)-3-(5-chloro-3-(pyrrolidin-3-yloxy)thiophene-2-carboxamido)piperidin-1-yl)pyrrolo[2,1-f][1,2,4]triazin-7-yl)-2,5-dihydro-1H-pyrrole-1-carboxylate], the IC50 stood at 3 nM.
In the case of `COC(=O)N1CC=C(c2cc(N3CCC[C@@H](NC(=O)c4sc(Cl)cc4OC4CCNC4)C3)c3c(N)ncnn23)C1` (stereo partly drawn) [Example 570, Methyl 3-(4-amino-5-((3R)-3-(5-chloro-3-(pyrrolidin-3-yloxy)thiophene-2-carboxamido)piperidin-1-yl)pyrrolo[2,1-f][1,2,4]triazin-7-yl)-2,5-dihydro-1H-pyrrole-1-carboxylate], the IC50 worked out at 3 nM.
Regarding `COC(=O)N1CC=C(c2cc(N3CCC[C@@H](NC(=O)c4sc(Cl)cc4OCC4CCNCC4)C3)c3c(N)ncnn23)C1` [Example 571, Methyl (R)-3-(4-amino-5-(3-(5-chloro-3-(piperidin-4-ylmethoxy)thiophene-2-carboxamido)piperidin-1-yl)pyrrolo[2,1-f][1,2,4]triazin-7-yl)-2,5-dihydro-1H-pyrrole-1-carboxylate], the IC50 stood at 8 nM.
